According to US20170042989A1, “PHOTOSENSITIZED TRYPANOSOMATIDS AND VACCINE COMPOSITIONS THEREOF” (ROSALIND FRANKLIN UNIVERSITY OF MEDICINE AND SCIENCE, priority 2015, published 2017):

Experiments:
[1] = tested on: Leishmania tropica; assay: Microscopy of Leishmania photolysis after PC sensitization and red light; type: cell-based; conditions: PC1/PC2: followed by red light; PC3/PC4: with or without red light
Protocol: (§1) Leishmania were suspended to 5×10^7-10^8 cells ml^−1 in HBSS-BSA for exposure to serial dilutions of PCs 1-4 in the dark overnight. Controls included cells exposed to diluent alone. J774 macrophages were treated as monolayer in HBSS-BSA or culture medium under otherwise the same conditions. All cultures were kept in the dark for various time periods up to 24 hrs.
Control and PC-sensitized Leishmania were washed and suspended in HBSS-BSA. The cell suspensions in 24-well culture plates and monolayers of J774 macrophages in 25 cm^2 TC flasks were exposed from the bottom to red light (wavelengths >650 nm) via a red filter (Smith-Victor Co., Barlett, Ill., USA; part #650021) over a light box for 20-30 min at a fluence of 1-2 J cm^2.
Nikon Eclipse 80i and TE2000-S microscopes with CCD cameras were used with Metamorphosis (version 6.1) or NIS Elements version AR 4.20.01 software for image capture and analysis. Concentrated cells (˜3 μl) on a glass slide under an 18 mm^2 glass coverslip were first scanned under phase contrast to localize cells. […] GFP/CFSE fluorescent Leishmania were further examined by using the FITC filter set. Images captured under different settings were merged by using the software programs mentioned. […]

[2] = tested on: Leishmania tropica; assay: Leishmania uptake of PCs by fluorescence microscopy; type: cell-based; conditions: fluorescent microscopy, Cy5 filter, exposure in the dark
Protocol: as §1
Nikon Eclipse 80i and TE2000-S microscopes with CCD cameras were used with Metamorphosis (version 6.1) or NIS Elements version AR 4.20.01 software for image capture and analysis. Concentrated cells (˜3 μl) on a glass slide under an 18 mm^2 glass coverslip were first scanned under phase contrast to localize cells. […] GFP/CFSE fluorescent Leishmania were further examined by using the FITC filter set. Images captured under different settings were merged by using the software programs mentioned. The filter sets (Chroma Technology Co., Brattleboro, Vt.) used were: (1) HQ620/60 (620-nm exciter), Q660LP (660-nm dichroic), and HQ700/80 (700-nm emitter) for phthalocyanines; and (2) HQ480/40 (480-nm exciter), Q505LP (505-nm dichroic), and HQ535/50 (535-nm emitter) for GFP and CFSE.

In the case of “triethylene glycol substituted Zn(II)-phthalocyanine [PC4]”, the “motility and structural integrity after PC sensitization” value [1] is reported as “retained their motility and cellular integrity” and the “uptake by Leishmania (PC fluorescence in cells)” value [2] is reported as “no uptake”.
